This note sets out measurements from patent US5330990A, “Substituted urea compounds and their preparation and use” (Novo Nordisk A/S, priority 1989, dated 1994).

Where a name gives a salt, the structure may show the parent alone.

In one assay the target is T1, 5-HT3 receptor (Cavia porcellus, UniProt O70212).
T1 construct: from tissue; host or cells: guinea pig isolated ileum (terminal 15 cm)
T1 sequence (O70212 20-490): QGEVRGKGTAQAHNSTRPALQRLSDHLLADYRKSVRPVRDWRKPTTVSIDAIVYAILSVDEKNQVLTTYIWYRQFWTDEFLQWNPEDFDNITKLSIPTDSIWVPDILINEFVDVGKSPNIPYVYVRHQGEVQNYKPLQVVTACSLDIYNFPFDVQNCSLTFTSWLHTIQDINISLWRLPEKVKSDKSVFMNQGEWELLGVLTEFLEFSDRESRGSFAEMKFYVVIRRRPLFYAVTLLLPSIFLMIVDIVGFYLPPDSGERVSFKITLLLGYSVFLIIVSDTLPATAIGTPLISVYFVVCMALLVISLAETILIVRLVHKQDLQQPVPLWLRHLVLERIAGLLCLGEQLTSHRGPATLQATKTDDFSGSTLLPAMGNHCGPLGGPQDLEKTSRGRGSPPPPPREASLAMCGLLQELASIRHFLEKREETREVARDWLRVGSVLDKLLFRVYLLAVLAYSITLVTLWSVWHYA
The assay is described as follows: 5HT3-antagonist activity: inhibition of 5-HT-induced contractions of isolated guinea pig ileum in the presence of methysergide.
Conditions: not given
In kind it is cell-based. As for the experimental part: Compounds of formula (I) were tested for their 5HT3 -antagonist activity using the following method:
5-HT produces contractions of the guinea pig ileum via 2 different receptors. 1) direct contractions via 5-HT2 receptors on the muscle, 2) indirect contractions via 5-HT3 recaptots on intrinsic gut neurones, producing acetylcholine release. By administering 5-HT to lengths of ileum in the presence of methysergide (to block 5-HT2 receptors) you can assay 5-HT3 receptor activity.
Guinea pigs were killed by means of cervical dislocation the terminal 15 cm of ileum removed, and 1.5-2.0 cm lengths prepared and mounted in 10 ml organ baths containing calcium deficient tyrodes of the following composition (mM) NaCl (136.9); KCl (2.68); CaCl2 (0.9); MgCl2 (1.05); NaCO3 (11.9); NaH2 PO4 (0.42); glucose (5.55) and containing methysergide (10^-6 M) maintained at 37° C. and gassed with 95% O2 and 5% CO2. The mechanical activity of the muscle was measured by a HSE 351 isometric transducer connected via a HSE bridge amplifier to a potentiometric pen recorder. Resting tension was 1 g and the tissue left to equilibrate for 1 hour.
First a dose response curve is obtained to acetylcholine on each tissue. Then one tissue is incubated for 20 min with tyrode and three with tyrode plus the putative 5-HT3 antagonist. After this incubation dose response curves to 5-HT are constructed to 5-HT in all 4 tissues (one control 3+test drug). Contact time for 5-HT 30 sec.
The maximum response to acetylcholine for each tissue is measured and the responses to 5-HT calculated as percentage maximum of the acetylcholine (Ach) maximum response in that tissue. The peak of the 5-HT response is measured.
For each tissue the concentration of 5-HT giving 100% of the maximum acetylcholine response (measured at 30 sac) is quoted.
The effect of a drug is quantified as the ratio of the concentration of 5-HT producing a 100% maximal Ach response in the presence and absence of the antagonist (dose ratio). The figure quoted is the concentration of the antagonist giving a dose ratio of 2, (A2).
Turning to `O=C(Nc1ccccc1-c1nc(C2CC2)no1)NC1CN2CCC1CC2` (stereo not drawn) [Example 10, N-(2-(3-Cyclopropyl-1,2,4-oxadiazol-5-yl)-phenyl)-N^1-(3-quinuclidinyl)urea], the Kb is 283 nM.

Still in this assay, the particulars now being: guinea pig ileum; methysergide 10^-6 M; 37° C.; 20 min incubation with antagonist; 5-HT contact time 30 sec; dose ratio at 100% maximal Ach response; read-out: A2 (concentration of the antagonist giving a dose ratio of 2) (converted).
As for `CCCCc1noc(-c2ccccc2NC(=O)N[C@H]2C[C@H]3CC[C@@H](C2)N3C)n1` [Example 7, N-(2-(3-Butyl-1,2,4-oxadiazol-5-yl)phenyl)-N^1-(endo-8-methyl-8-azabicyclo[3.2.1]oct-3-yl)urea, (CO2 H)2], the Kb was 13 nM.
For the compound `CCON=Cc1ccccc1NC(=O)N[C@H]1C[C@H]2CC[C@@H](C1)N2C` [Example 16, N-(Endo-8-methyl-8-azabicyclo[3.2.1]oct-3-yl)-N^1-(2-(N-ethoxyiminomethyl)phenyl)urea, HCl], the Kb was 36.3 nM.
Turning to `Cc1noc(-c2ccccc2NC(=O)N[C@H]2C[C@H]3CC[C@@H](C2)N3C)n1` [Example 6, N-(Endo-8-methyl-8-azabicyclo[3.2.1]oct-3-yl) -N^1-(2-(3-methyl-1,2,4-oxadiazol-5-yl)-phenyl)urea, HCl], the Kb is 293 nM.
On to `CN1[C@@H]2CC[C@H]1C[C@@H](NC(=O)Nc1ccccc1C=NOCC1CC1)C2` [Example 15, N-(Endo-8-methyl-8-azabicyclo[3.2.1]oct-3-yl)-N^1-(2-(N-cyclo-propylmethoxyiminomethyl)phenyl)urea, HCl], for which the Kb is 5.05 nM.
On the same count and under the same terms, in the case of `CON=Cc1ccccc1NC(=O)N[C@H]1C[C@H]2CCC[C@@H](C1)N2C` [Example 18, N-(2-(N-Methoxyiminomethyl)phenyl)-N^1-(endo-9-methyl-9-azabicyclo[3.3.1]non-3-yl)urea] it was 36.3 nM; in that of `CN1[C@@H]2CC[C@H]1C[C@@H](NC(=O)Nc1ccccc1-c1nc(C3CC3)no1)C2` [Example 5, N-(2-(3-Cyclopropyl-1,2,4-oxadiazol-5-yl)phenyl)-N^1-(endo-8-methyl-8-azabicyclo[3.2.1]oct-3-yl)urea HCl], 43.5 nM; in that of `CN1[C@@H]2CCC[C@H]1C[C@@H](NC(=O)Nc1ccccc1-c1nc(C3CC3)no1)C2` [Example 8, N-(2-(3-Cyclopropyl-1,2,4-oxadiazol-5-yl)-phenyl)-N^1-(endo-9-methyl-9-azabicyclo[3.3.1]non-3-yl)urea, HCl], 3.41 nM.
`CN1[C@@H]2CCC[C@H]1C[C@@H](NC(=O)Nc1ccccc1-c1nc(-c3ccccc3)no1)C2` [Example 11, N-(Endo-9-methyl-9-azabicyclo[3.3.1]non-3-yl)-N ^1-(2-(3-phenyl-1,2,4-oxadiazol-5-yl)phenyl)urea]: the Kb is 24 nM.
